From publication PMC3842914, “Meleagrin, a New FabI Inhibitor from Penicillium chryosogenum with at Least One Additional Mode of Action” (PLoS ONE, 2013) come the findings set out here.

Converted amounts (≈) assume the structure as drawn. Read-outs that look alike come from different tables or passages of the source.

One test deals with E. coli EW1b(pBAD). As to the kind of experiment: Overexpression assay, MIC for vector-containing E. coli EW1b (pBAD). Particulars: Escherichia coli. The test is classed as cell-based. As for the experimental part:
(§1) Whole-cell antimicrobial activity was determined by broth microdilution as described previously. The test strains except for S. pneumoniae were grown to mid-log phase in Mueller–Hinton broth and diluted 1,000-fold in the same medium. Cells (10^5/mL) were inoculated into Mueller–Hinton broth and dispensed at 0.2 mL/well into a 96-well microtiter plate. S. pneumoniae was grown in tryptic soy broth supplemented with 5% sheep blood. MICs were determined in triplicate by serial 2-fold dilutions of test compounds. […] Bacterial growth was determined by measuring the absorption at 650 nm by using a microtiter ELISA reader.
(§2) An overexpression assay using S. aureus RN4220, S. aureus RN4220 (pE194), and S. aureus RN4220 (pE194-fabI) was conducted to perform target validation of FabI inhibitors as described previously. Additionally, both fabI- and fabK-overexpressing E. coli were constructed to test a multitarget effect of the compounds. The wild-type fabI gene from the genomic DNA of E. coli W3110 was amplified by PCR by using the primers 5′-[…]-3′ and 5′-[…]-3′. The wild-type fabK gene from the genomic DNA of S. pneumoniae KCTC 5412 was amplified by PCR by using the primers 5′-[…]-3′ and 5′-[…] […]-3′. The resulting products were cloned into the pBAD-TOPO TA expression vector (Invitrogen, Carlsbad, CA, USA) to yield the pBAD-fabI and pBAD-fabK recombinant plasmids, which placed the expression of the genes fabI and fabK, respectively, under the control of the arabinose promoter. Recombinant pBAD-fabI and pBAD-fabK were then introduced into the pump-negative (tolC) E. coli EW1b via electroporation to generate E. coli EW1b (pBAD-fabI) and E. coli EW1b (pBAD-fabK), respectively.

For the next test, the system named is E. coli EW1b. The test is described as follows: Overexpression assay, MIC for pump-negative (tolC) E. coli EW1b. Type of test: cell-based. The conditions noted are these: Escherichia coli. As for the experimental part:
as §1, §2

For another test, the system named is E. coli EW1b(pBAD-fabI). As to the kind of experiment: Overexpression assay, MIC for fabI-overexpressing E. coli EW1b (pBAD-fabI). The test is classed as cell-based. Particulars: Escherichia coli. As for the experimental part: as §1, §2
In the next test the test system is E. coli EW1b(pBAD-fabK). As to the kind of experiment: Overexpression assay, MIC for fabK-overexpressing E. coli EW1b (pBAD-fabK). The test is classed as cell-based. Particulars: Escherichia coli. As for the experimental part: as §1, §2
Test [1] relates to S. aureus RN4220. The test is described as follows: MIC by broth microdilution, S. aureus RN4220 (wild type). Type of test: cell-based, Staphylococcus aureus. The conditions noted are these: Staphylococcus aureus; S. aureus RN4220 (wild type). The method, then: as §1
The target in another test is T1, S. aureus FabI (Staphylococcus aureus, UniProt Q6GI75).
T1 construct: made in house
T1 sequence (Q6GI75 1-256): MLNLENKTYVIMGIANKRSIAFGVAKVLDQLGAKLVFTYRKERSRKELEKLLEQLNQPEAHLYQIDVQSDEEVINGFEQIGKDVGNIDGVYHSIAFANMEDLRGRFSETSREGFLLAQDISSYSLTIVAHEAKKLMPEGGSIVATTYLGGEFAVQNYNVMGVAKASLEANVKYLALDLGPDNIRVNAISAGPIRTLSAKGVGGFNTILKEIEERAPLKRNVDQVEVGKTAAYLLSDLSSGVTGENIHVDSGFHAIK
As to the kind of experiment: S. aureus FabI enzyme assay (NADPH use at 340 nm, t-o-NAC thioester substrate). The test is classed as biochemical. The source says:
(§3) S. aureus FabI and E. coli FabI enzymes were cloned, overexpressed, and purified as described previously. The wild-type fabK gene was amplified by PCR from genomic DNA obtained from Streptococcus pneumoniae KCTC 5412 by using the primers 5′-[…]-3′ and 5′-[…]-3′, which contained NdeI and XhoI restriction sites, respectively. After the DNA sequence was confirmed, the gene was cloned into the pET22b vector (Novagen, Gibbstown, NJ, USA). The construct was transformed into E. coli BL21 (DE3) for expression following induction with isopropylthiogalactoside. The C-terminal His-tagged protein was purified as described previously. Assays were conducted in half-area, 96-well microtiter plates. The compounds were dissolved in DMSO and evaluated in 100-μL assay mixtures containing components specific for each enzyme (see below). Reduction of the trans-2-octenoyl N-acetylcysteamine (t-o-NAC thioester) substrate analog was measured spectrophotometrically following the utilization of NADH or NADPH at 340 nm at 30°C for the linear period of the assay. S. aureus FabI assays contained 50 mM sodium acetate (pH 6.5), 200 μM t-o-NAC thioester, 200 μM NADPH, and 150 nM S. aureus FabI.
(§4) NADH was used as a cofactor rather than NADPH for the E. coli FabI assay. Substrate concentrations used for the Lineweaver–Burk plot were 100, 200, 300, and 400 μM, whereas the concentrations of the cofactor were 100, 200, 400, and 600 μM. The rate of decrease in the amount of NADPH in each reaction was measured with a microtiter enzyme-linked immunosorbent assay (ELISA) reader by using the SOFTmax PRO software (Molecular Devices, Sunnyvale, CA, USA). The inhibitory activity was calculated according to the following formula: % of inhibition = 100× [1− (rate in the presence of compound/rate in the untreated control)]. IC50 values were calculated by fitting the data to a sigmoid equation. An equal volume of DMSO solvent was used for the untreated control. FabK assays contained 100 mM sodium acetate (pH 6.5), 2% glycerol, 200 mM NH4Cl, 50 µM t-o-NAC thioester, 200 µM NADH, and 150 nM S. pneumoniae FabK.

The subject of the next test is E. coli KCTC 1924. As to the kind of experiment: MIC by broth microdilution, E. coli KCTC 1924. The test is classed as cell-based. Particulars: Escherichia coli, KCTC1924, read-out: MIC E. coli. The method, then: as §1
Another test has as its target T2, S. pneumoniae FabK (Streptococcus pneumoniae, UniProt Q9FBC5).
T2 sequence (Q9FBC5 1-324): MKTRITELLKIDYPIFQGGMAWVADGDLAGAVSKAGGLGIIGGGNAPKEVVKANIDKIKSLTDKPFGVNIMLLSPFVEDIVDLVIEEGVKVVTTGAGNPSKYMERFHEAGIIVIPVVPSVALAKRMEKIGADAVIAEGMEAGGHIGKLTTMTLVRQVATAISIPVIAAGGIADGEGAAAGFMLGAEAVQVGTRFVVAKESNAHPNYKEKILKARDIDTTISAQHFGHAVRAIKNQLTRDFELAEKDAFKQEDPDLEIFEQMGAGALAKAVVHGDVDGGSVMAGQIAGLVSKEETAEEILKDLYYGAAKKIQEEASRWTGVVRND
As to the kind of experiment: S. pneumoniae FabK enzyme assay. The test is classed as biochemical.
Excerpt: as §3, §4

Test [2] concerns S. pneumoniae KCTC 3932. As to the kind of experiment: MIC by broth microdilution, S. pneumoniae KCTC 3932. The test is classed as cell-based. Particulars: Streptococcus pneumoniae, KCTC3932, read-out: MIC S. pneumoniae. As for the experimental part: as §1
In another test the target is T3, E. coli FabI (Escherichia coli, UniProt P0AEK4).
T3 construct: made in house
T3 sequence (P0AEK4 whole entry): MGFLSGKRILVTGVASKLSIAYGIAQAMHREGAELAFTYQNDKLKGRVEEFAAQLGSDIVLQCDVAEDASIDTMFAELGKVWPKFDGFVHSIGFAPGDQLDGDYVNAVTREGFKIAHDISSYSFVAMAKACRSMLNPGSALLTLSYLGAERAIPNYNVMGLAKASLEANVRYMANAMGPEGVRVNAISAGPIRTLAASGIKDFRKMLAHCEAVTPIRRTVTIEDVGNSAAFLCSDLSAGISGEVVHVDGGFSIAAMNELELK
The test is described as follows: E. coli FabI enzyme assay (NADH as cofactor). Type of test: biochemical.
Excerpt: as §3, §4

For the next test, the system named is S. aureus RN4220 (pE194). As to the kind of experiment: Overexpression assay, MIC for vector-containing S. aureus RN4220 (pE194). Type of test: cell-based. Particulars: Staphylococcus aureus, read-out: MIC S. aureus (pE194). The method, then: as §1, §2
Test [3] deals with S. aureus RN4220 (pE194-fabI). The test is described as follows: Overexpression assay, MIC for fabI-overexpressing S. aureus RN4220 (pE194-fabI). The test is classed as cell-based. The conditions noted are these: Staphylococcus aureus, read-out: MIC S. aureus (pE194-fabI). As for the experimental part:
as §1, §2

In test [4] the test system is S. aureus RN4220. The test is described as follows: Inhibition of macromolecular biosynthesis (radiolabeled precursor incorporation) in S. aureus. Type of test: cell-based, Staphylococcus aureus. The conditions noted are these: drugs at 2 times the MIC. The method, then: (§5) To monitor the effects of compound 1 on lipid, DNA, RNA, protein, and cell wall biosynthesis, its effects on the incorporation of [1-^14C] acetate (50 mCi/mmol), [2-^14C] thymidine (59.8 mCi/mmol), [U-^14C] uridine (539 mCi/mmol), L-[U-^14C] leucine (306 mCi/mmol) or L-[U-^14C] isoleucine (329 mCi/mmol), and N-acetyl-D-[1-^14C] glucosamine (58.1 mCi/mmol) into S. aureus and S. pneumoniae were measured as described previously. S. aureus was exponentially grown to an A650 of 0.2 in Mueller–Hinton broth. S. pneumoniae was grown in tryptic soy broth supplemented with 5% sheep blood. […] An equal volume of DMSO solvent was added to the untreated control. After incubation with the radiolabeled precursors at 37°C for 1 h, followed by centrifugation, the cell pellets were washed twice with PBS buffer. After acetate incorporation, the total cellular lipids were extracted with chloroform-methanol-water. The incorporated radioactivity in the chloroform phase was measured by scintillation counting. For the other precursors, incorporation was terminated by adding 10% (w/v) TCA and cooling on ice for 20 min. The precipitated material was collected on Whatman GF/C glass microfiber filters, washed with TCA and ethanol, dried, and counted using a scintillation counter. The total counts incorporated at 1 h of incubation without inhibitors ranged from >7,000 for [U-^14C] uridine to <13,000 for [1-^14C] acetate. […] In all experiments, known antibacterial agents were included as positive controls.

Test [5] has as its system S. pneumoniae KCTC 3932. As to the kind of experiment: Inhibition of macromolecular biosynthesis (radiolabeled precursor incorporation) in S. pneumoniae. The test is classed as cell-based, Streptococcus pneumoniae. Particulars: drugs at 2 times the MIC. As for the experimental part: as §5
The mark [6] stands for this setting: read-out: MIC E. coli EW1b(pBAD) (+) Ara.
[7] abbreviates: read-out: MIC E. coli EW1b(pBAD) (−) Ara.
Setting [8] is: read-out: MIC E. coli EW1b (+) Ara.
Setting [9] is: read-out: MIC E. coli EW1b (−) Ara.
The mark [10] stands for this setting: read-out: MIC E. coli EW1b(pBAD-fabI) (+) Ara.
Setting [11] is: read-out: MIC E. coli EW1b(pBAD-fabI) (−) Ara.
The mark [12] stands for this setting: read-out: MIC E. coli EW1b(pBAD-fabK) (+) Ara.
Setting [13] is: read-out: MIC E. coli EW1b(pBAD-fabK) (−) Ara.
[14] abbreviates: S. aureus FabI, read-out: IC50 saFabI.

Consider `CCCCC[C@H](CC(=O)NO)C(=O)N[C@H](C(=O)N1CCC[C@H]1CO)C(C)C` [Actinonin], for which the minimum inhibitory concentration (MIC) with E. coli EW1b(pBAD) (setting [6]), with E. coli EW1b(pBAD) (setting [7]), in the test on E. coli EW1b (setting [8]), in the test on E. coli EW1b (setting [9]), in the test with E. coli EW1b(pBAD-fabI) (setting [10]) and in the test on E. coli EW1b(pBAD-fabI) (setting [11]) was 1 µg/mL (≈ 2.59 µM) each time. The MIC in the test on E. coli EW1b(pBAD-fabK) (setting [12]) and in the test on E. coli EW1b(pBAD-fabK) (setting [13]) was 1 µg/mL (≈ 2.59 µM) throughout.

In the case of `CC1(C)S[C@@H]2[C@H](NC(=O)[C@H](N)c3ccccc3)C(=O)N2[C@H]1C(=O)O` [Ampicillin], the minimum inhibitory concentration (MIC) is more than 125 µg/mL in the test with E. coli EW1b(pBAD) (setting [6]); more than 125 µg/mL with E. coli EW1b(pBAD) (setting [7]); 1 µg/mL (≈ 2.86 µM) in the test on E. coli EW1b (setting [8]); 1 µg/mL (≈ 2.86 µM) in the test on E. coli EW1b (setting [9]); more than 125 µg/mL in the test on E. coli EW1b(pBAD-fabI) (setting [10]); more than 125 µg/mL in the test on E. coli EW1b(pBAD-fabI) (setting [11]). Moreover, the MIC in the test on E. coli EW1b(pBAD-fabK) (setting [12]) and in the test on E. coli EW1b(pBAD-fabK) (setting [13]) was more than 125 µg/mL in each case.

As for `C=CC(C)(C)C12C=C(O)C(=O)N3/C(=C/c4cnc[nH]4)C(=O)NC31Nc1ccccc12` (centres unmarked) [Compound 2, glandicolin A], the MIC with S. aureus RN4220 [1], in the test on E. coli KCTC 1924 and with S. pneumoniae KCTC 3932 [2] was 64 µg/mL (≈ 159 µM) in each case. Also, the IC50 against S. aureus FabI is 54.6 µM; against S. pneumoniae FabK it was more than 200 µM; at E. coli FabI, 49.7 µM.

With `CC[C@H]1OC(=O)[C@H](C)[C@@H](O[C@H]2C[C@@](C)(OC)[C@@H](O)[C@H](C)O2)[C@H](C)[C@@H](O[C@@H]2O[C@H](C)C[C@H](N(C)C)[C@H]2O)[C@](C)(O)C[C@@H](C)C(=O)[C@H](C)[C@@H](O)[C@]1(C)O` [Erythromycin, reference compound], the MIC is 64 µg/mL (≈ 87.2 µM) in the test with S. aureus RN4220 (pE194), 0.5 µg/mL (≈ 0.681 µM) against S. aureus RN4220 [1] and 64 µg/mL (≈ 87.2 µM) in [3]. For the same compound, on S. aureus FabI (setting [14]), the 50% inhibitory concentration (IC50) was more than 100 µM.

With `CCn1cc(C(=O)O)c(=O)c2cc(F)c(N3CCNCC3)cc21` [Norfloxacin, reference compound], the entries for the “Inhibition of precursor incorporation, [2-14C] Thymidine” value in the test on S. aureus RN4220 [4] and in the test with S. pneumoniae KCTC 3932 [5] were 79% and 83%, respectively. The minimal inhibitory concentration (MIC) (in the test with S. aureus RN4220 (pE194); in the test with S. aureus RN4220 [1]; in test [3]) was 1 µg/mL (≈ 3.13 µM) throughout. The half-maximal inhibitory concentration (IC50) at S. aureus FabI (setting [14]) is more than 100 µM.
